Assay results from article PMC6627486, “Ipomoeassin F Binds Sec61α to Inhibit Protein Translocation” (Journal of the American Chemical Society, 2019).
Read-outs that look alike come from different tables or passages of the source.

What was measured:
[1] = tested on: TNF production by RAW264.7 cells; assay: TNF production washout assay in LPS-stimulated RAW264.7 cells; format: cell-based; settings: 250 nM ipomoeassin F, 125 ng/mL mycolactone; for TNF production after 24 h washout: 1 h incubation, washed, 24 h recovery, then LPS 4 h; for TNF production, direct assay: 1 h preincubation, then 100 ng/mL LPS 4 h
Procedure: The reversibility of the inhibition of secreted protein production by ipomoeassin F was determined by following the production of TNF in RAW264.7 cells as described before.22 Briefly, RAW264.7 cells were maintained at 37 °C and 5% CO2 in high glucose DMEM (Merck), supplemented with 10% heat-inactivated FBS (GIBCO). Cells were plated into 24 well plates at a concentration of 1 x 10^5/ml 24 hour prior to assay, then incubated for 1 hour in the presence or absence of 125 ng/ml mycolactone, 250 nM Ipomoeassin F or DMSO carrier. Cells were either stimulated directly with 100 ng/ml TLR-grade LPS (Enzo) or washed 3 times with medium and incubated 24 hour, then stimulated with LPS. In each case, cells were incubated with LPS for 4 hour then the supernatants were removed. The concentration of TNF in supernatants was quantified by ELISA (eBioscience).

HCT R66K = assay: Alamar Blue viability, HCT116 Sec61α R66K (96 h); format: cell-based, human
Procedure: (§1) AlamarBlue Cytotoxicity Assay
(§2) MDA-MB-231, MCF-10A and HCT116. Viable cells were counted with a hemocytometer immediately before each experiment . Experiments were done in triplicate. First, 100 μL of MDA-MB-231 cells or MCF-10A cells at the density of 50,000 cells/mL was seeded in a 96-well plate (5,000 cells/well) and then incubated at 37 °C and 5% CO2 for 24 h. The compounds were dissolved in DMSO (dimethyl sulfoxide) to make drug stocks (10 mM). The stock solutions were diluted with the complete DMEM high glucose culture medium to make a series of gradient fresh working solutions right before each test. Subsequently, the cells were treated with 100 μL of the freshly made gradient working solution in a total volume of 200 μL/well for 72 h. After that, the media were discarded and 200 μL of the fresh complete medium containing 10% of AlamarBlue (resazurin) stock solution was added to each well. The plate was then incubated at 37 °C and 5% CO2 for another 3 h. Emission of each well at 620 nm was detected by a microplate reader (BioTek Synergy H1) at excitation 580 nm. For HCT116 WT and mutant lines, cells were seeded at 1000 cells/ well in complete McCoys medium. […] Cells were treated for 96 h, then viability measured with AlamarBlue, detected using the conditions described but with a BMG Fluostar Optima Microplate Reader. […]
(§3) was determined. […]

WT HCT116 = assay: Alamar Blue viability, parental HCT116 (96 h); format: cell-based, human; settings: read-out: cell viability IC50
Procedure: as §1, §2, §3

HCT D60G = assay: Alamar Blue viability, HCT116 Sec61α D60G (96 h); format: cell-based, human
Procedure: as §1, §2, §3

WT HEK = assay: Alamar Blue viability, WT HEK293; format: cell-based, human; settings: read-out: cell viability IC50
Procedure: (§4) AlamarBlue Cytotoxicity Assay […]
(§5) HCT116 and HEK293T. Viable cells were counted using an automated cell counter (BioRad TC20) before each experiment. Experiments were performed either in quadruplicate or duplicate sets. First 100µ l of HCT116 or HEK293T cells at a density of 25,000 cells/m l was seeded in black wall, clear bottom, 96-well plates (2500 cells/well) (Viewplate-96 Perkin Elmer). HEK293 FRT Trex cells were seeded in complete medium supplemented to 1 μg/ml Doxycycline to induce expression of Sec61a constructs. Cells were then incubated at 37 °C and 5% CO2 for 24 h. The compounds were dissolved in DMSO to make drug stocks (10 mM). The stock solutions were diluted with the complete DMEM or McCoy’s 5A culture media supplemented with DMSO to make a series of gradient fresh working solutions at equal DMSO percentage immediately prior to each test. Subsequently, the cells were treated with 25 μl of the freshly made gradient in a total volume of 125 μl/well for 72 h. After that, the media were supplemented with 10% of AlamarBlue (resazurin) stock solution. The plate was then incubated at 37 °C and 5% CO2 for another 4 h. Emission of each well at 620 nm was detected by a microplate reader (Perkin Elmer EnSpire) at excitation 580 nm. The percentage of viability compared to the negative control (DMSO -treated cells) was determined. […]

HEK T86M = assay: Alamar Blue viability, HEK293 expressing Sec61α T86M; format: cell-based, human; settings: read-out: cell viability IC50
Procedure: as §4, §5

[2] = Homo sapiens, HCT-116, read-out: cell viability IC50

SMILES	TNF production after 24 h washout [1]	TNF production, direct assay [1]	IC50 (HCT R66K; [2]) [nM]	IC50 (WT HCT116; Homo sapiens, HCT-116, WT HCT116, 96 h) [nM]	IC50 (HCT D60G; [2]) [nM]	IC50 (WT HEK; Homo sapiens, HEK293, 72 h) [nM]	IC50 (HEK T86M; Homo sapiens, HEK293, 72 h) [nM]	IC50 (HCT R66K; read-out: cell viability IC50) [nM]	IC50 (WT HCT116; WT HCT116, 96 h) [nM]	IC50 (HCT D60G; read-out: cell viability IC50) [nM]	IC50 (WT HEK; 72 h) [nM]	IC50 (HEK T86M; 72 h) [nM]
C/C=C(\C)C(=O)O[C@@H]1[C@@H](O)[C@@H]2O[C@H]3[C@H](O[C@@H](CCCCC)CCCCCCC(=O)CCC(=O)OC[C@@H](O2)[C@H]1OC(=O)/C=C/c1ccccc1)O[C@H](C)[C@H](OC(C)=O)[C@@H]3O [ipomoeassin F]	restored, albeit at a reduced level	similarly blocked TNF production	131 ± 15	40 ± 4	88.1 ± 10.3	9.6 ± 1	13.5 ± 0.6					
CC(=C\C=C\C(C)=C\[C@H](O)[C@@H](O)C[C@H](C)O)/C=C(C)/C=C/C(=O)O[C@H]1CCCC(=O)O[C@@H]([C@@H](C)C/C(C)=C/[C@@H](C)[C@H](O)C[C@@H](C)O)C/C=C(\C)C[C@@H]1C [mycolactone, reference compound]	not to be restored	completely block TNF production						> 330	1.9 ± 0.6	> 330	23.6 ± 0.6	2470
